Numbers after ± are expanded uncertainties.

For the data set the following is noted: Crystal; DTA.

For `CC(C)Cc1ccc([C@H](C)C(=O)O)cc1` [(S)-2-(4-isobutylphenyl)propanoic acid], the Normal melting temperature was 51.1 ± 0.5 °C.

With `CC(C)Cc1ccc(C(C)C(=O)O)cc1` (configuration not stated) [ibuprofen], the Normal melting temperature turned out to be 76.1 ± 0.5 °C.
